Source: patent US12679878B2, “CRF2 receptor agonists and their use in therapy” (SANOFI, priority 2020, dated 2026)
Values after ≈ are worked out from the molar mass of the structure shown. Like-named read-outs stand apart in the source and are kept apart here. Starred links: 1 amine or outer side, 2 acyl side, 3 side chain; linkers in the order of their positions; H or OH if unused. Non-standard residues stand in square brackets, D forms with d. Residues, ends and D or L forms follow the SMILES beside them. Groups on a side chain read outwards from the residue. *: point of attachment. C18 diacid = O=C(O)CCCCCCCCCCCCCCCCC(=O)*; γGlu = O=C(O)[C@H](CCC(=O)[*:2])N[*:1]; AEEA = NCCOCCOCC(=O)O; Aib = CC(C)(N)C(=O)O

Key:
[1] = molecular target: T1, human CRF2α receptor (Homo sapiens, UniProt Q13324); assay: cAMP agonism at human CRF2 α receptor in TeloHEAC cells (Example 7); assay type: cell-based; details: cAMP HTRF, TeloHEAC cells stably expressing human CRF2 α
T1 construct: expressed in transfected cells; host or cells: TeloHEAC
T1 sequence (Q13324 1-411): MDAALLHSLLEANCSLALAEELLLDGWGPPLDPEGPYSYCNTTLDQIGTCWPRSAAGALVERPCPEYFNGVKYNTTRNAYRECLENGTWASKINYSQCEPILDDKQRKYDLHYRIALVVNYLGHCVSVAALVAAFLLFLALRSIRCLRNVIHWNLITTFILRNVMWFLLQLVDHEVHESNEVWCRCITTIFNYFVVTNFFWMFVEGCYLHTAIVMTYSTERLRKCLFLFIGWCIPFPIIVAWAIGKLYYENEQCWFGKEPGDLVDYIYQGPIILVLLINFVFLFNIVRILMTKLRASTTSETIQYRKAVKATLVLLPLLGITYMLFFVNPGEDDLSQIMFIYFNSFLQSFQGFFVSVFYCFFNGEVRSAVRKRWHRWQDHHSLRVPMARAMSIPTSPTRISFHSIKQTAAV
In short: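 Steps: thaw and wash cells; suspend in 1×HBSS, 20 mM HEPES, 0 or 0.1% HSA, 2 mM IBMX; add compound, 30 min RT; lyse with HTRF reagents, 1 h; read 665/620 nm. EC50 calculated, E% versus 1000 nM UCN2.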

[2] = molecular target: T2, CRF1R receptor (Homo sapiens, UniProt P34998); assay: cAMP activity at anti-target CRF1R, CRF1R-overexpression CHO cell line (Example 9); assay type: cell-based; details: CRF1R-overexpression CHO cell line; for EC50: 0% HSA; for Emax: read-out: Emax (%)
T2 construct: host or cells: CHO-K1 clone 2
T2 sequence (P34998 24-415): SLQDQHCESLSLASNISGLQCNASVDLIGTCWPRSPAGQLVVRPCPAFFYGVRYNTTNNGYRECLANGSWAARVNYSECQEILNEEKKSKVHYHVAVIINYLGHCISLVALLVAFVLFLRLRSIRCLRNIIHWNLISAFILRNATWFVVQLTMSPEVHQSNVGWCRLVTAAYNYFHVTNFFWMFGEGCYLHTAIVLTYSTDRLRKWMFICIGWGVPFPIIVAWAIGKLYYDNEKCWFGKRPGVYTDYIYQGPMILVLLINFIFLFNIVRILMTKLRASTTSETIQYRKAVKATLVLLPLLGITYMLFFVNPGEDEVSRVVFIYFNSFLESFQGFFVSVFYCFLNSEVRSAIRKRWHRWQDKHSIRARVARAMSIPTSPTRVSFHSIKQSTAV
In short: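 Using thawed CRF1R-overexpressing CHO cells at 2000 per well, compound is applied for 30 min at RT in HBSS/HEPES buffer with IBMX. Cellular cAMP content is determined via HTRF, and percent activity is calculated against 1000 nM UCN2 defined as 100%.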

[3] = test system: rat CRF2R α receptor; assay: cAMP agonism at rat CRF2R α receptor in A7R5 rat aortic smooth muscle cells (Example 8); assay type: cell-based; details: cAMP HTRF, A7R5 rat aortic smooth muscle cell line, 0% HSA
In short: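 Potency (EC50) is the concentration reaching half-maximal activation, with responses scaled so that 1000 nM urocortin 2 equals 100%. Intracellular cAMP was quantified by homogeneous time-resolved fluorescence at 665/620 nm, 1 h after lysis-buffer reagents. Compound stimulation lasted 30 min at room temperature on 2000 IBMX-treated (2 mM) cells per well in HEPES-buffered HBSS.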

[4] = Solubility in buffer systems by UPLC-UV (Example 13); assay type: physicochemical
In short: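 Quantitation used UV peak area from UPLC of the 1:10-diluted supernatant, set against a reference-compound standard curve with extinction coefficients adjusted for amino acid sequence.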

[5] = Physical stability, Thioflavin T fibrillation assay (Example 14); assay type: physicochemical; details: Buffer B: 100 mM acetate buffer, pH 4.5, 2.7 mg/ml m-cresol; 3 mg/ml; 37° C. shaking
Experimental: The physical stability of the compounds was assessed using a Thioflavin T (ThT) assay.
The time course for fibril formation often follows the characteristic shape of a sigmoidal curve and can be separated into three regions: a lag phase, a fast growth phase, and a plateau phase. The typical fibril formation process starts with the lag phase in which the amount of partially folded peptide turned into fibrils is not significant enough to be detected. The lag-time corresponds to the time the critical mass of the nucleus is built. Afterwards, a drastic elongation phase follows and fibril concentration increases rapidly. Therefore, by measuring the increase in fluorescence intensity attributable to ThT as well as the lag time of the increase, the fibrillation tendency of a peptide can be determined, thereby providing a measure of the physical stability of the peptide.
In the present study, test compounds were diluted in buffer to a final concentration of 3 mg/ml.
The fibrillation tendencies of the peptides were determined under stress using a Fluoroskan Ascent FL or Fluoroskan Ascent fluorometer. […] Plates were sealed with Scotch Tape (Quiagen). Samples were stressed by continuous cycles of 10 s shaking at 960 rpm and 50 s rest period at 37° C. Fibril development was monitored by measuring fluorescence intensity every 20 minutes. For each sample, eight replicates were tested.

[6] = 0% HSA, read-out: EC50 [nM], 0% HSA
[7] = 0.1% HSA, read-out: EC50 [nM], 0.1% HSA

EC50 [1, 6] [nM]	EC50 [2] [nM]	Emax [2] [%]	EC50 [3] [nM]	solubility at 1 h ([4]; pH 4.5, Solubility in Buffer B [mg/ml]) [mg/mL]	solubility at 1 h ([4]; pH 7.4, Solubility in Buffer C [mg/ml]) [mg/mL]	EC50 [1, 7] [nM]	Increase in FI (fluorescence intensity) [5]	Lag time [5] [h]	SMILES
0.46	> 1000	8.74	3.99	18.9 (≈ 3.7 mM)	> 8.8				CC[C@H](C)[C@H](N)C(=O)N[C@H](C(=O)N[C@@H](CC(C)C)C(=O)N[C@@H](CO)C(=O)N[C@@H](CC(C)C)C(=O)N[C@@H](CC(=O)O)C(=O)N[C@H](C(=O)N1CCC[C@H]1C(=O)N[C@H](C(=O)N[C@@H](CCCCN)C(=O)N[C@@H](CC(C)C)C(=O)N[C@@H](CCCCNC(=O)COCCOCCNC(=O)COCCOCCNC(=O)CC[C@H](NC(=O)CCCCCCCCCCCCCCCCC(=O)O)C(=O)O)C(=O)N[C@@H](CCC(N)=O)C(=O)N[C@H](C(=O)N[C@@H](CC(C)C)C(=O)N[C@@H](CC(C)C)C(=O)N[C@@H](CCC(=O)O)C(=O)N[C@@H](CCC(N)=O)C(=O)N[C@@H](CCC(=O)O)C(=O)N[C@@H](CCCCN)C(=O)N[C@@H](CCC(N)=O)C(=O)N[C@@H](CCCCN)C(=O)NC(C)(C)C(=O)N[C@@H](CCC(N)=O)C(=O)N[C@@H](CCCNC(=N)N)C(=O)N[C@@H](CCC(=O)O)C(=O)N[C@@H](CCC(N)=O)C(=O)N[C@@H](C)C(=O)N[C@@H](CCC(=O)O)C(=O)N[C@H](C(=O)N[C@@H](CC(N)=O)C(=O)N[C@@H](CCCCN)C(=O)N[C@@H](CCC(N)=O)C(=O)N[C@H](C(=O)N[C@@H](CC(C)C)C(=O)N[C@@H](C)C(=O)N[C@@H](CCC(N)=O)C(=O)N[C@H](C(N)=O)C(C)C)[C@@H](C)CC)[C@@H](C)O)[C@@H](C)CC)[C@@H](C)CC)C(C)C)C(C)C [compound 79] (H-IVLSLDVPIKLK([AEEA-AEEA-γGlu-C18 diacid])QILLEQEKQK[Aib]QREQAETNKQILAQV-NH2; N-terminus assumed)
0.07	> 1000	7.51	1.83			2.99	No	>45	CC[C@H](C)[C@H](N)C(=O)N[C@H](C(=O)N[C@@H](CC(C)C)C(=O)N[C@@H](CO)C(=O)N[C@@H](CC(C)C)C(=O)N[C@@H](CC(=O)O)C(=O)N[C@@H](C(=O)N1CCC[C@H]1C(=O)N[C@H](C(=O)NCC(=O)N[C@@H](CC(C)C)C(=O)N[C@@H](CCCCNC(=O)COCCOCCNC(=O)COCCOCCNC(=O)CC[C@H](NC(=O)CCCCCCCCCCCCCCCCC(=O)O)C(=O)O)C(=O)N[C@@H](CCC(N)=O)C(=O)N[C@H](C(=O)N[C@@H](CC(C)C)C(=O)N[C@@H](CC(C)C)C(=O)N[C@@H](CCCCN)C(=O)N[C@@H](CCC(N)=O)C(=O)N[C@@H](CCC(=O)O)C(=O)N[C@@H](CCCNC(=N)N)C(=O)N[C@@H](CCC(N)=O)C(=O)N[C@@H](CCCCN)C(=O)N[C@@H](CCCCN)C(=O)NC(C)(C)C(=O)N[C@@H](CCCNC(=N)N)C(=O)N[C@@H](CCC(=O)O)C(=O)N[C@@H](CCC(N)=O)C(=O)N[C@@H](C)C(=O)N[C@@H](CCC(=O)O)C(=O)N[C@H](C(=O)N[C@@H](CC(N)=O)C(=O)N[C@@H](CCCCN)C(=O)N[C@@H](CCCNC(=N)N)C(=O)N[C@H](C(=O)N[C@@H](CC(C)C)C(=O)N[C@@H](CCC(=O)O)C(=O)N[C@@H](CCCNC(=N)N)C(=O)N[C@H](C(N)=O)C(C)C)[C@@H](C)CC)[C@@H](C)O)[C@@H](C)CC)[C@@H](C)CC)C(C)C)C(C)C [compound 83] (H-IVLSLD[dV]PIGLK([AEEA-AEEA-γGlu-C18 diacid])QILLKQERQKK[Aib]REQAETNKRILERV-NH2; N-terminus assumed)
0.11			0.39			2.44	No	>45	CC[C@H](C)[C@H](N)C(=O)N[C@H](C(=O)N[C@@H](CC(C)C)C(=O)N[C@@H](CO)C(=O)N[C@@H](CC(C)C)C(=O)N[C@@H](CC(=O)O)C(=O)N[C@@H](C(=O)N1CCC[C@H]1C(=O)N[C@H](C(=O)N[C@@H](CCCCN)C(=O)N[C@@H](CC(C)C)C(=O)N[C@@H](CCCCNC(=O)COCCOCCNC(=O)COCCOCCNC(=O)CC[C@H](NC(=O)CCCCCCCCCCCCCCCCC(=O)O)C(=O)O)C(=O)N[C@@H](CCC(N)=O)C(=O)N[C@H](C(=O)N[C@@H](CC(C)C)C(=O)N[C@@H](CC(C)C)C(=O)N[C@@H](CCC(=O)O)C(=O)N[C@@H](CCC(N)=O)C(=O)N[C@@H](CCC(=O)O)C(=O)N[C@@H](CCCNC(=N)N)C(=O)N[C@@H](CCC(N)=O)C(=O)N[C@@H](CCCCN)C(=O)NC(C)(C)C(=O)N[C@@H](CCC(N)=O)C(=O)N[C@@H](CCCNC(=N)N)C(=O)N[C@@H](CCC(N)=O)C(=O)N[C@@H](CCC(N)=O)C(=O)N[C@@H](C)C(=O)N[C@@H](CCC(=O)O)C(=O)N[C@@H](CCCCN)C(=O)N[C@@H](CC(N)=O)C(=O)N[C@@H](CCCCN)C(=O)N[C@@H](CCC(N)=O)C(=O)N[C@H](C(=O)N[C@@H](CC(C)C)C(=O)N[C@@H](C)C(=O)N[C@@H](CCC(N)=O)C(=O)N[C@H](C(N)=O)C(C)C)[C@@H](C)CC)[C@@H](C)CC)[C@@H](C)CC)C(C)C)C(C)C [compound 131] (H-IVLSLD[dV]PIKLK([AEEA-AEEA-γGlu-C18 diacid])QILLEQERQK[Aib]QRQQAEKNKQILAQV-NH2)
0.38	> 1000	36.9	0.79			8.76	No	>45	CC[C@H](C)[C@H](N)C(=O)N[C@H](C(=O)N[C@@H](CC(C)C)C(=O)N[C@@H](CO)C(=O)N[C@@H](CC(C)C)C(=O)N[C@@H](CC(=O)O)C(=O)N[C@@H](C(=O)N1CCC[C@H]1C(=O)N[C@H](C(=O)N[C@@H](CCCCN)C(=O)N[C@@H](CC(C)C)C(=O)N[C@@H](CCCCNC(=O)COCCOCCNC(=O)COCCOCCNC(=O)CC[C@H](NC(=O)CCCCCCCCCCCCCCCCC(=O)O)C(=O)O)C(=O)N[C@@H](CCC(N)=O)C(=O)N[C@H](C(=O)N[C@@H](CC(C)C)C(=O)N[C@@H](CC(C)C)C(=O)N[C@@H](CCC(=O)O)C(=O)N[C@@H](CCC(N)=O)C(=O)N[C@@H](CCC(=O)O)C(=O)N[C@@H](CCCNC(=N)N)C(=O)N[C@@H](CCC(N)=O)C(=O)N[C@@H](CCCCN)C(=O)NC(C)(C)C(=O)N[C@@H](CCC(N)=O)C(=O)N[C@@H](CCCNC(=N)N)C(=O)N[C@@H](CCC(=O)O)C(=O)N[C@@H](CCC(N)=O)C(=O)N[C@@H](C)C(=O)N[C@@H](CCC(=O)O)C(=O)N[C@@H](CCCCN)C(=O)N[C@@H](CC(N)=O)C(=O)N[C@@H](CCCCN)C(=O)N[C@@H](CCC(N)=O)C(=O)N[C@H](C(=O)N[C@@H](CC(C)C)C(=O)N[C@@H](CCC(=O)O)C(=O)N[C@@H](CCCNC(=N)N)C(=O)N[C@H](C(N)=O)C(C)C)[C@@H](C)CC)[C@@H](C)CC)[C@@H](C)CC)C(C)C)C(C)C [compound 132] (H-IVLSLD[dV]PIKLK([AEEA-AEEA-γGlu-C18 diacid])QILLEQERQK[Aib]QREQAEKNKQILERV-NH2)
